We go through one substance from patent US20200323882A1, “PHLIP®-MEDIATED TARGETING OF CORTICOSTEROIDS TO DISEASED TISSUE” (priority 2019, published 2020).

Test [1] relates to MCP-1 (monocyte chemoattractant protein).
Method: CD-1 male mouse, 6 to 7 weeks and 32-38 grams from Charles River Labs were used in the study. […] Briefly, mice were allowed optimal inhalation and passive gravitational flow of LPS directly to the lungs. 50 μg (in 50 μl) LPS was instilled into the nares in five boluses of 10 μl each. […] For processing, a mammalian protease inhibitor cocktail (diluted 1:100 in PBS) was added to each lung sample. Lungs were homogenized by Beadbeater with 2 mm zirconia beads for 1.5 minutes. Homogenates were spun at 10K for 10 minutes at 4° C., and supernatants collected for analysis. Quantikine kit (R&D Systems) assays for JE/MCP-1 were performed as per kit protocols. For the lungs samples, MCP-1 content was expressed as pg/mg of protein. Protein measurements were performed by Pierce™ BCA Protein Assay Kit according to the protocol provided by a manufacturer.
For test [2], the system named is oxazolone-induced contact hypersensitivity. Particulars: 24 hrs after oxazolone challenge; pHLIP-Dexa 4.6 mg/kg i.p. vs Dexa 0.46 mg/kg i.p. and 20 mg/kg orally.
Method: CD-1 male mouse, 8 to 10 weeks from Charles River Labs were used in the study. Contact hypersensitivity was induced by sensitization and challenge with oxazalone as follows: on day 1, mice are sensitized to oxazalone by application (50 μL; 3% in 100% ethanol) to the abdominal area (previously shaved) and to each footpad (5 μL). On day 6, mice were exposed to oxazalone (20 μL; 1% in 100% ethanol) by application to each side of right ear. Twenty-four hrs after challenge (day 7), dermatitis severity was measured using a visual scale: 0—no evidence of erythema or swelling; 1—mild swelling; 2—mild erythema and moderate selling; 3—erythema and severe swelling. Ear thickness was measured using a micrometer once, prior to sensitization on day 1 (baseline) and once, after dosing on day 7 of the study.
Test [3] concerns RPMI 8226 myeloma cells. Particulars: 5 μM pHLIP-Dexa, 2 hrs without FBS, viability after 22 hours.
Method: Myeloma cancer cells were loaded in the wells (30,000 cells/well) and incubated overnight. […] Cell viability was assessed after 22 hours using the colorimetric CellTiter 96 AQueous One Solution Cell Proliferation Assay by absorption measurement at 490 nm.

Read-outs that look alike come from different tables or passages of the source.

pHLIP-(PEG4)-dexamethasone [pHLIP-Dexa]: the “reduction of level of MCP-1 protein” value in test [1] (dose 4.6 mg/kg in PBS/5% DMSO, 30 minutes after LPS) is reported as “very effective in reducing level of MCP-1 protein”. In addition, the “reduction of level of MCP-1 protein” value in test [1] (high dose 11.4 mg/kg in PBS/5% DMSO) is recorded as “less effective”. In addition, in test [2], the “decrease of thickness of animal ear” value is “as effective as high and low doses of Dexa”; the “reduction of inflammation (dermatitis severity, scale 0 to 3)” value was “as effective as high and low doses of Dexa”. In test [3], the “myeloma cancer cell viability, pHLIP-Dexa alone” value was “induced myeloma cancer cells death”.
